Data as given in BindingDB's records for patent US10202378 (Genentech, 2019).
pIC50: −log10 of the molar value.

Assays:
[1] = biological target: T1, Transcription initiation factor TFIID subunit 1 [1504-1635] (Homo sapiens, UniProt P21675); test: TR-FRET Binding Assay
T1 construct: 1504-1635
T1 sequence (P21675 whole entry): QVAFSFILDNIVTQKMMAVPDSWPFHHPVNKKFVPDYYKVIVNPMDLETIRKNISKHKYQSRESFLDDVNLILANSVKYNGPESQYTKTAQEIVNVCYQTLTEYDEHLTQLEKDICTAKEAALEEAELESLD
Protocol: After a 10 minute incubation at room temperature, biotin-ligand (0.04 uM final) was added. […] After forty minutes of equilibration at room temperature, the plates were read on an Envision instrument and IC50s calculated using a four parameter logistic model (XLFIT).

[2] = biological target: T2, Transcription initiation factor TFIID subunit 1 [1381-1497] (Homo sapiens, UniProt P21675); test: TAF1-BD1 TR-FRET Binding Assay
T2 construct: 1381-1497
T2 sequence (P21675 whole entry): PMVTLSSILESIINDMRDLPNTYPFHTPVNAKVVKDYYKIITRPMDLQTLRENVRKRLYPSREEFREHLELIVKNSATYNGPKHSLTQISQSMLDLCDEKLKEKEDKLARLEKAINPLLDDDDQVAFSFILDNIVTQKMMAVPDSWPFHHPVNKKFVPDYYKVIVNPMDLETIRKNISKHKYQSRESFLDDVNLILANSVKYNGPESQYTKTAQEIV
Protocol: Specifically, in a 384 well ProxiPlate, TAF1-BDI (0.08 uM final) in 50 mM HEPES (pH 7.5; final), 50 mM NaCl (final), 1 mM TCEP (final), 0.1 mg/mL BSA (final), and 0.069 mM Brij-35 (final) was added either in the presence of DMSO (final 0.2% DMSO) or compound dilution series in DMSO. After a 10 minute incubation at room temperature, biotin-ligand (0.08 uM final) was added. After 10 minutes incubation at room temperature, a mixture Eu-W1024 Anti-6×His antibody (Perkin Elmer ADO 110) and SureLight Streptavidin-Allophycocyanin (SA-APC, Perkin Elmer CR130-100) were added to final concentrations of 0.2 nM antibody and 0.05 uM SA-APC, respectively. After forty minutes of equilibration at room temperature, the plates were read on an Envision instrument and IC50s calculated using a four parameter logistic model (XLFIT).

pIC50 [1] | pIC50 [2] | Compound
7.28 | 6.56 | Cc1[nH]c2c(=O)n(C)cc(C#CC(C)(C)O)c2c1C(=O)OCC1CC1 [US10202378, Example 155]
7.10 | 5.83 | CCOC(=O)c1c(C)[nH]c2c(=O)n(C)cc(C#CC3(O)CCN(C(C)=O)CC3)c12 [US10202378, Example 11]
7.23 | 5.65 | CCOC(=O)c1c(C)[nH]c2c(=O)n(C)cc(C#CC3(O)CCN(C(=O)CC)CC3)c12 [US10202378, Example 10]
5.76 | 5.35 | CN(C)C(=O)c1c[nH]c2c(=O)n(C)cc(C#CC(C)(C)O)c12 [US10202378, Example 171]
7.27 | 6.63 | Cc1[nH]c2c(=O)n(C)cc(C#CC(C)(C)O)c2c1C(=O)OC(C)C(C)C (stereo unspecified) [US10202378, Example 152]
7.00 | 6.10 | CCOC(=O)c1c(C)[nH]c2c(=O)n(C)cc(C#CC(C)(O)CO)c12 (stereo unspecified) [US10202378, Example 66]
7.14 | 6.45 | CCOC(=O)c1c(C)[nH]c2c(=O)n(C)cc(C#CC(C)(O)C3(C)CC3)c12 (stereo unspecified) [US10202378, Example 4]
5.39 | 5.28 | CCOC(=O)c1c(C)[nH]c2c(=O)n(C)cc(C#CC(C)(C)N)c12 [US10202378, Example 67]
6.74 | 6.22 | CCOC(=O)c1c(C)[nH]c2c(=O)n(C)cc(C#CC(C)(O)C3CCOC3)c12 (stereo unspecified) [US10202378, Example 7]
7.28 | 6.80 | Cc1cc([C@](C)(O)C#Cc2cn(C)c(=O)c3[nH]c(C)c(C(=O)OC(C)C(C)C)c23)no1 (stereo partly specified) [US10202378, Example 142]
7.70 | 6.57 | CC(=O)N1CCC(COC(=O)c2c(C)[nH]c3c(=O)n(C)cc(C#CC(C)(C)O)c23)CC1 [US10202378, Example 144]
7.27 | 6.57 | CCC(C)C(C)OC(=O)c1c(C)[nH]c2c(=O)n(C)cc(C#CC(C)(C)O)c12 (stereo unspecified) [US10202378, Example 145]
7.06 | 6.68 | CCOC(=O)c1c(C)[nH]c2c(=O)n(C)cc(C#CC(O)(c3ccc(N(C)C)cc3)C(F)(F)F)c12 (stereo unspecified) [US10202378, Example 3]
6.87 | 6.08 | CCOC(=O)c1c(C)[nH]c2c(=O)n(C)cc(C#CC(C)(O)CC)c12 (stereo unspecified) [US10202378, Example 65]
6.81 | 5.06 | CCOC(=O)c1c(C)[nH]c2c(=O)n(CC3CC3)cc(C#CC(C)(C)O)c12 [US10202378, Example 52]
7.31 | 6.61 | CCOC(=O)c1c(C)[nH]c2c(=O)n(C)cc(C#CC(C)(O)C3CC3)c12 (stereo unspecified) [US10202378, Example 77]
7.32 | 6.60 | CCC(C)(C)OC(=O)c1c(C)[nH]c2c(=O)n(C)cc(C#CC(C)(O)C3CC3)c12 (stereo unspecified) [US10202378, Example 138]
7.29 | 6.52 | CCOC(=O)c1c(C)[nH]c2c(=O)n(C)cc(C#CC(C)(O)c3cccc(C)c3)c12 (stereo unspecified) [US10202378, Example 29]
7.29 | 6.56 | Cc1[nH]c2c(=O)n(C)cc(C#CC(C)(O)c3ccccc3)c2c1C(=O)OC(C)C (stereo unspecified) [US10202378, Example 161]
6.91 | 6.28 | CCOC(=O)c1c(C)[nH]c2c(=O)n(C)cc(C#CC(C)(O)c3nccs3)c12 (stereo unspecified) [US10202378, Example 68]
7.43 | 6.46 | CC(=O)NCCCOC(=O)c1c(C)[nH]c2c(=O)n(C)cc(C#CC(C)(O)C3CC3)c12 (stereo unspecified) [US10202378, Example 140]
7.13 | 6.37 | Cc1[nH]c2c(=O)n(C)cc(C#CC(C)(O)C3CC3)c2c1-c1nnc(CO)o1 (stereo unspecified) [US10202378, Example 206]
4.83 | < 4.70 | CCOC(=O)c1c(C)[nH]c2c(=O)n(C)cc(C#CC(C)(O)CNc3ccccc3)c12 (stereo unspecified) [US10202378, Example 14]
